The text below walks through data of ChEMBL document CHEMBL3881526, “Selective androgen receptor modulators and method of use thereof” (2007).

Data set [1] has as its system Rattus norvegicus. The data set can be described thus: Effect on heart weight in ORX Sprague-Dawley rat at 0.1 to 1 ug/day delivered at constant rate for 14 days via subcutaneous osmotic pumps. Type of data set: ADME, tissue-based. Particulars: in vivo, sc, 336 h.
Data set [2] concerns Rattus norvegicus. The data set can be described thus: Androgenic activity in ORX Sprague-Dawley rat assessed as restoration of prostate weight at 0.1 to 1 ug/day delivered at constant rate for 14 days via subcutaneous osmotic pumps. Type of data set: functional.
In data set [3] the test system is Rattus norvegicus. Briefly: Effect on spleen weight in ORX Sprague-Dawley rat at 0.1 to 1 ug/day delivered at constant rate for 14 days via subcutaneous osmotic pumps. Type of data set: ADME, tissue-based. Particulars: in vivo, sc, 336 h.
The test system of data set [4] is Rattus norvegicus. Briefly: Androgenic activity in ORX Sprague-Dawley rat assessed as restoration of seminal vesicles weight at 0.1 to 1 ug/day delivered at constant rate for 14 days via subcutaneous osmotic pumps. Type of data set: functional.
Data set [5] is described as follows: Toxicity in ORX Sprague-Dawley rat assessed as induction of toxicity signs at 0.1 to 1 ug/day delivered at constant rate for 14 days via subcutaneous osmotic pumps by diagnostic hematology test. Particulars: in vivo, sc, 336 h.
Data set [6] has as its system Rattus norvegicus. The data set can be described thus: Effect on lung weight in ORX Sprague-Dawley rat at 0.1 to 1 ug/day delivered at constant rate for 14 days via subcutaneous osmotic pumps. Type of data set: ADME, tissue-based. Particulars: sc, 336 h.
In data set [7] the test system is Rattus norvegicus. Briefly: Suppression of serum FSH in ORX Sprague-Dawley rat at =>0.3 mg/day delivered at constant rate for 14 days via subcutaneous osmotic pumps. Type of data set: functional.
Data set [8] concerns Rattus norvegicus. The data set can be described thus: Anabolic activity in ORX Sprague-Dawley rat assessed as restoration of levator ani muscle weight at 0.1 to 1 ug/day delivered at constant rate for 14 days via subcutaneous osmotic pumps. Type of data set: functional.
Data set [9] is described as follows: Toxicity in ORX Sprague-Dawley rat assessed as induction of toxicity signs at 0.1 to 1 ug/day delivered at constant rate for 14 days via subcutaneous osmotic pumps by visual examination test. Particulars: in vivo, sc, 336 h.
Data set [10] concerns Rattus norvegicus. Briefly: Androgenic activity in ORX Sprague-Dawley rat assessed as restoration of prostate weight at 1000 ug/day delivered at constant rate for 14 days via subcutaneous osmotic pumps. Type of data set: functional, tissue-based.
For data set [11], the system named is Rattus norvegicus. The data set can be described thus: Androgenic activity in ORX Sprague-Dawley rat assessed as restoration of seminal vesicles weight at 1000 ug/day delivered at constant rate for 14 days via subcutaneous osmotic pumps. Type of data set: functional, tissue-based.
The nature of data set [12]: Oral bioavailability in beagle dog at 10 mg/kg administered via solution after 72 hrs by HPLC analysis. Type of data set: ADME, organism-based, Canis lupus familiaris. Particulars: in vivo.
Data set [13] is described as follows: Oral bioavailability in beagle dog at 10 mg/kg administered via capsule after 72 hrs by HPLC analysis. Particulars: in vivo. Type of data set: ADME, organism-based, Canis lupus familiaris.
Data set [14] has as its system Rattus norvegicus. Briefly: Effect on serum FSH in ORX Sprague-Dawley rat at 0.3 mg/day delivered at constant rate for 14 days via subcutaneous osmotic pumps. Particulars: sc, 336 h. Type of data set: ADME.
Data set [15] concerns Rattus norvegicus. The data set can be described thus: Effect on serum LH in ORX Sprague-Dawley rat at 0.3 mg/day delivered at constant rate for 14 days via subcutaneous osmotic pumps. Particulars: sc, 336 h. Type of data set: ADME.
Data set [16] in a line: Terminal half life in beagle dog at 3 mg/kg, iv after 72 hrs by HPLC analysis. Type of data set: ADME, organism-based, Canis lupus familiaris. Particulars: in vivo, read-out: beta t1/2 (converted).
Data set [17] is described as follows: Plasma clearance in beagle dog at 3 mg/kg, iv after 72 hrs by HPLC analysis. Type of data set: ADME, organism-based, Canis lupus familiaris.
Data set [18] concerns Rattus norvegicus. The data set can be described thus: Anabolic activity in ORX Sprague-Dawley rat assessed as restoration of levator ani muscle weight at 1000 ug/day delivered at constant rate for 14 days via subcutaneous osmotic pumps. Type of data set: functional, tissue-based.

Structures are written as SMILES. The source made the active and inactive calls. The rule behind the calls is not given here. Where only a bound is given, the exact number is not on record here.

`C[C@](O)(COc1ccc(F)cc1)C(=O)Nc1ccc([N+](=O)[O-])c(C(F)(F)F)c1`: the Activity result is given as “Non-Toxic” with Rattus norvegicus [1]; less than 40% in the data set with Rattus norvegicus [2]; “Non-Toxic” in the data set with Rattus norvegicus [3]; less than 40% in the data set with Rattus norvegicus [4]; “Non-Toxic” in data set [5]; “Non-Toxic” in the data set on Rattus norvegicus [6]. Further, the Activity entry in [9] is listed as “Non-Toxic”. Further, the outcome with Rattus norvegicus [7] and in the data set on Rattus norvegicus [8] was Active.
As usually defined, the bioavailability is dose-corrected exposure relative to a reference, in per cent. A higher bioavailability goes with good availability. As a reminder, the clearance is the volume of plasma or blood freed of the substance per unit of time. A higher clearance goes with a high capacity for elimination. As to `CC(=O)Nc1ccc(OC[C@](C)(O)C(=O)Nc2ccc([N+](=O)[O-])c(C(F)(F)F)c2)cc1`, the result with Rattus norvegicus [10], in the data set on Rattus norvegicus [11] and with Rattus norvegicus [18] was Active. Besides, the bioavailability is 38% in [12] and 19% in data set [13]. For the same compound, the Activity result is “Dose-dependent effect” with Rattus norvegicus [2]; “Dose-dependent effect” in the data set with Rattus norvegicus [4]; “Non-Toxic” in the data set on Rattus norvegicus [14]; “Non-Toxic” in the data set on Rattus norvegicus [15]; “Dose-dependent effect” in the data set with Rattus norvegicus [8]. Besides, the half-life in [16] is 4 h. Moreover, the clearance in data set [17] came to 4.4 mL/min/kg.
